Laboratory results taken from article PMC6825286 (Proceedings of the National Academy of Sciences of the …, 2019).

Target: T1, SghR (Agrobacterium tumefaciens, UniProt A0A2I4PGE9)
T1 sequence (A0A2I4PGE9 1-350): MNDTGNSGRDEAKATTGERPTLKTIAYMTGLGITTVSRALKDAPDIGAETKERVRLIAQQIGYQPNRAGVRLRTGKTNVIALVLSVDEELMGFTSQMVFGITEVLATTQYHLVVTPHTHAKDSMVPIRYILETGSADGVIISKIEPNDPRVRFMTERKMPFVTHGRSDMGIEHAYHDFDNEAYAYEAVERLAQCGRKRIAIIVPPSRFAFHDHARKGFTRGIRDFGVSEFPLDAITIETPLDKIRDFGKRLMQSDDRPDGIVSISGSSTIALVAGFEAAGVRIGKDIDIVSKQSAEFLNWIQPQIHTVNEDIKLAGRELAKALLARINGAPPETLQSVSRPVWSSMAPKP
Assay: EMSA, dissociation of SghR from biotin-labelled sghA promoter
Type: binding
Settings: sucrose 50 and 500 µM; inducer that releases the repressor from DNA

In the case of OC[C@H]1O[C@@](CO)(O[C@H]2O[C@H](CO)[C@@H](O)[C@H](O)[C@H]2O)[C@@H](O)[C@@H]1O [sucrose], the “EMSA, dissociation of SghR from biotin-labelled sghA promoter” value is reported as “gel shift analysis demonstrated that sucrose dissociated repressor SghR from the sghA promoter”.
